# Measurements taken from paper PMC6680932, “Structure–Antioxidant–Antiproliferative Activity Relationships of Natural C7 and C7–C8 Hydroxylated Flavones and Flavanones” (Antioxidants, 2019).
# Read-outs that look alike come from different tables or passages of the source.
# What was measured:
# [1] = ABTS radical cation decolorization assay; conditions: for TEAC ABTS: 6 min incubation, 734 nm, mean ± SD; for increase of antioxidant activity in ABTS test, biotransformation product vs substrate: 8-hydroxylated product relative to the substrate from which it was obtained
# Method: (§1) The antioxidant capacity of flavonoids was measured in three separate tests: ABTS, DPPH, and ferric ion reducing antioxidant power (FRAP) assays (ABTS, DPPH, and FRAP reagents from Sigma-Aldrich). All tested compounds were dissolved in DMSO. All determinations were performed in triplicate. Standard curves were prepared for all assays using different concentrations of Trolox (6-hydroxy-2,5,7,8-tetramethylchroman-2-carboxylic acid) (Sigma-Aldrich). Trolox is a water-soluble analogue of vitamin E with high antioxidant activity, commonly used as a control and a reference in studies of antioxidant activity. The results were expressed as the equivalent of μmol Trolox per μmol of the test compound. The absorbance was measured using a UV-2401 PC spectrophotometer (Shimadzu, Kyoto, Japan). Concentrations of the tested samples were in the range from 50 µg/mL to 10 mg/mL.
# The radical cation scavenging capacity of the tested compounds was examined against ABTS^+ (2,2’-azino-bis(3-ethylbenzo-thiazoline-6-sulfonic acid) according to the procedure described by Re et al. with some modifications. The test sample (30 μL) of known concentration was mixed in a polystyrene cuvette with 3 mL of ABTS solution with a measured absorption of 0.700 at a wavelength of λ = 734 nm. After 6 min of incubation, the absorption of samples was recorded. The ABTS reagent was freshly prepared before each experiment.
# [2] = DPPH free radical scavenging activity assay; conditions: for TEAC DPPH: 10 min, 517 nm, mean ± SD; for increase of antioxidant activity in DPPH test, biotransformation product vs substrate: 8-hydroxylated product relative to the substrate from which it was obtained
# Method: as §1
# The DPPH (2,2-diphenyl-1-picrylhydrazyl) radical scavenging activity of samples was determined according to the method described by Yen and Chen with some modifications. Samples (0.1 mL) of known concentration were mixed in polystyrene cuvettes with 2 mL of 0.04 mM DPPH in ethanol and 0.4 mL of ethanol. The absorbance was measured after 10 min at λ = 517 nm. The DPPH reagent was freshly prepared before each experiment.
# [3] = system: MV-4-11 (biphenotypic B myelomonocytic leukemia); assay: Antiproliferative activity in vitro, MTT assay; assay type: cell-based, human; conditions: Homo sapiens, MV4-11, 72 h exposure, read-out: IC50 ± SD MV-4-11
# [4] = system: HLMEC (lung microvascular endothelial cells); assay: Antiproliferative activity in vitro, SRB assay; assay type: cell-based, human; conditions: Homo sapiens, Endothelial cell, read-out: IC50 ± SD HLMEC
# Method: (§2) The antiproliferative studies were performed in vitro using human cancer cell lines—MV-4-11 (biphenotypic B myelomonocytic leukemia), MCF7 (breast carcinoma), LoVo (colon cancer), LoVo/DX (colon cancer doxorubicin-resistant), and DU 145 (prostate cancer)—and normal human cell lines—MCF 10A (breast cells) and HLMEC (lung microvascular endothelial cells). The cell lines MV-4-11, LoVo, DU 145, and MCF 10A were obtained from the American Type Culture Collection (Rockville, Maryland, USA), MCF7 from the European Collection of Authenticated Cell Cultures (ECACC, Salisbury, UK), LoVo/DX courtesy of Professor E. Borowski (Technical University of Gdansk, Poland), and HLMECs (which had been already immortalized by transfection with pSV3-neoplasmid containing large T-antigen gene) were the kind gift of Professor Claudine Kieda (Center for Molecular Biophysics, Orleans, France). The cell lines are being maintained in the Hirszfeld Institute of Immunology and Experimental Therapy, Polish Academy of Sciences (HIIET, PAS), Wroclaw, Poland. All cell lines were grown at 37 °C with 5% CO2 humidified atmosphere. The MV-4-11 cells were cultured in RPMI 1640 medium with GlutaMAX (Gibco, Scotland, UK), supplemented with 1 mM sodium pyruvate and 10% fetal bovine serum (both from Sigma-Aldrich, Poznan, Poland). The MCF7 cells were cultured in Eagle medium (HIIET, PAS, Wroclaw, Poland) supplemented with 2 mM L-glutamine, 10% fetal bovine serum, 1% nonessential amino acid solution, and 0.8 mg/L of insulin (all from Sigma-Aldrich, Poznan, Poland). The LoVo and LoVo/DX cells were cultured in a 1:1 (v/v) mixture of RPMI 1640 and Opti-MEM (both HIIET, PAS, Wroclaw, Poland), supplemented with 1 mM sodium pyruvate, 2 mM L-glutamine, and 5% fetal bovine serum (all from Sigma-Aldrich, Poznan, Poland). For LoVo/DX cells, additionally 10 µg/100 mL of doxorubicin (Accord Healthcare) was added to the medium. DU 145 cells were cultured in Eagle medium (HIIET, PAS, Wroclaw, Poland) supplemented with 1 mM sodium pyruvate, 4 mM L-glutamine, and 10% fetal bovine serum (all from Sigma-Aldrich, Poznan, Poland). The MCF 10A cells were cultured in the F-12 nutrient mixture (Gibco, Scotland, UK), supplemented with 5% horse serum (Gibco, Scotland, UK), 0.05 μg/mL of cholera toxin (Vibrio cholerae), 0.5 μg/mL of hydrocortisone, 10 μg/mL of insulin, and 20 ng/mL of human epidermal growth factor (all from Sigma-Aldrich, Poznan, Poland). The HLMEC cells were cultured in the RPMI 1640 medium (HIIET, PAS, Wroclaw, Poland) with the addition of 2 mM L-glutamine (Sigma-Aldrich, Poznan, Poland) and 10% fetal bovine serum (GE Healthcare). All culture media were supplemented with 100 units/mL penicillin (Polfa Tarchomin S.A., Warsaw, Poland) and 100 µg/mL streptomycin (Sigma-Aldrich, Poznan, Poland). Twenty-four hours before addition of the tested agents, the cells were plated in 96-well plates (Sarstedt, Germany) at a density of 1 × 10^4 (1 × 10^3 for HLMEC and 0.75 × 10^4 for MCF7) cells per well in 100 μL of culture medium.
# (§3) Tested compounds were dissolved in DMSO and then diluted in a 1:1 (v/v) mixture of RPMI 1640 (HIIET, PAS, Wroclaw, Poland) and Opti-MEM (Gibco, Scotland, UK) medium supplemented with 2 mM L-glutamine (Sigma-Aldrich, Poznan, Poland), 5% fetal bovine serum (GE Healthcare), 100 units/mL penicillin (Polfa Tarchomin S.A., Warsaw, Poland), and 100 µg/mL streptomycin (Sigma-Aldrich, Poznan, Poland). The antiproliferative effects of the flavonoids were examined after 72 h of exposure of the cultured cells to varying concentrations of the tested agents (from 0.1 to 100 μg/mL) using the MTT (for MV-4-11 cells) or SRB assay described below. Cisplatin (chemotherapy drug used to treat a number of cancers) was used as a positive control. The results are presented as an inhibitory concentration 50 (IC50), which is the concentration of the tested agent that inhibits proliferation of the cell population by 50%. IC50 values for each experiment were calculated separately. […]
# LoVo (colon cancer) = assay: Antiproliferative activity in vitro, SRB assay; assay type: cell-based, human; conditions: Homo sapiens, LoVo, 72 h, read-out: IC50 ± SD LoVo
# Method: as §2, §3
# MCF 10A (breast cells) = assay: Antiproliferative activity in vitro, SRB assay; assay type: cell-based, human; conditions: Homo sapiens, MCF-10A, read-out: IC50 ± SD MCF 10A
# Method: as §2, §3
# MCF7 (breast carcinoma) = assay: Antiproliferative activity in vitro, SRB assay; assay type: cell-based, human; conditions: Homo sapiens, read-out: IC50 ± SD MCF7
# Method: as §2, §3
# [5] = system: LoVo/DX (colon cancer doxorubicin-resistant); assay: Antiproliferative activity in vitro, SRB assay; assay type: cell-based, human; conditions: Homo sapiens, LoVo/DX, 72 h exposure, read-out: IC50 ± SD LoVo/DX
# [6] = FRAP (ferric ion reducing antioxidant power) assay; conditions: for TEAC FRAP: 10 min, 593 nm, mean ± SD
# Method: as §1
# The FRAP method is based on measuring the ability of antioxidants to reduce ferric 2,4,6-tris(2-pyridyl)-1,3,5-triazine [Fe(III)-TPTZ] in the blue colored ferrous form, which absorbs light at λ = 593 nm. The Fe(III)-TPTZ reagent was prepared as a mixture of acetate buffer (pH 3.6), 10 mM TPTZ in 40 mM HCl, and 20 mM FeCl3 in the ratio of 10:1:1 (v/v/v). The FRAP reagent was freshly prepared before each experiment. The samples (0.1 mL) were mixed in polystyrene cuvettes with 3 mL of ferric complex and 0.9 mL of distilled water. The absorbance was measured after 10 min at λ = 593 nm.
# DU 145 (prostate cancer) = assay: Antiproliferative activity in vitro, SRB assay; assay type: cell-based, human; conditions: Homo sapiens, DU-145, 72 h, read-out: IC50 ± SD DU 145
# [7] = 72 h exposure, SRB, normal cell line
SMILES,TEAC ABTS [1],TEAC DPPH [2],IC50 [3],"IC50 [4, 7]","IC50 (LoVo (colon cancer); 72 h exposure, SRB)",IC50 (MCF 10A (breast cells); [7]),"IC50 (MCF7 (breast carcinoma); MCF7, 72 h exposure, SRB)",IC50 [5],TEAC FRAP [6],IC50 ([4]; 72 h),IC50 (LoVo (colon cancer)),IC50 (MCF 10A (breast cells); 72 h),"IC50 (MCF7 (breast carcinoma); MCF7, 72 h)",IC50 (DU 145 (prostate cancer)),"increase of antioxidant activity in ABTS test, biotransformation product vs substrate [1]","increase of antioxidant activity in DPPH test, biotransformation product vs substrate [2]","increase of antioxidant activity in FRAP test, biotransformation product vs substrate ([6]; 8-hydroxylated product relative to the substrate from which it was obtained)"
"O=c1cc(-c2ccccc2)oc2cc(O)cc(O)c12 [Compound 1, Chrysin]",0.084 ± 0.011 µmol trolox per µmol of tested,0.004 ± 0.001 µmol trolox per µmol of tested,15.1 ± 1.99 µM,22.9 ± 2.02 µM,28 ± 8.17 µM,27 ± 12 µM,75 ± 26.1 µM,13 ± 1.29 µM,–,–,–,–,–,–,–,–,–
"COc1ccc(-c2cc(=O)c3c(O)cc(O)cc3o2)cc1O [Compound 4, diosmetin]",1.712 ± 0.041 µmol trolox per µmol of tested,0.008 ± 0.001 µmol trolox per µmol of tested,8.39 ± 3.53 µM,14.4 ± 1.95 µM,15 ± 2.2 µM,–,123 ± 37.4 µM,13.4 ± 3.02 µM,–,–,–,–,–,–,–,–,–
"O=C1C[C@@H](c2ccc(O)c(O)c2)Oc2cc(O)cc(O)c21 [Compound 7, eriodictyol]",13.988 ± 0.251 µmol trolox per µmol of tested,9.582 ± 0.315 µmol trolox per µmol of tested,–,–,–,–,–,99.2 ± 12.5 µM,10.619 ± 0.319 µmol trolox per µmol of tested,25.8 ± 6.71 µM,101 ± 10.9 µM,147 ± 36.2 µM,151 ± 9.31 µM,121 ± 18.4 µM,–,–,–
"O=c1cc(-c2ccccc2)oc2c(O)c(O)cc(O)c12 [Compound 9, 8-hydroxychrysin]",14.173 ± 1.591 µmol trolox per µmol of tested,8.038 ± 0.061 µmol trolox per µmol of tested,–,120 ± 2.24 µM,–,–,–,–,8.900 ± 0.582 µmol trolox per µmol of tested,–,–,–,–,–,about 170 fold,about 2000 fold,–
"O=c1cc(-c2ccc(O)c(O)c2)oc2c(O)c(O)cc(O)c12 [Compound 11, 8-hydroxyluteolin]",34.450 ± 1.016 µmol trolox per µmol of tested,13.208 ± 0.080 µmol trolox per µmol of tested,–,106 ± 1.72 µM,238 ± 35.4 µM,–,–,–,36.895 ± 0.432 µmol trolox per µmol of tested,–,–,–,–,–,more than twice as active,–,–
"COc1ccc(-c2cc(=O)c3c(O)cc(O)c(O)c3o2)cc1O [Compound 12, 8-Hydroxydiosmetin]",13.405 ± 0.826 µmol trolox per µmol of tested,8.496 ± 0.040 µmol trolox per µmol of tested,–,108 ± 15.4 µM,224 ± 15.3 µM,–,–,–,11.340 ± 0.203 µmol trolox per µmol of tested,–,–,–,–,–,–,–,–
"O=C1CC(c2ccccc2)Oc2c(O)c(O)cc(O)c21 (stereo not shown) [Compound 13, 8-hydroxypinocembrin]",20.763 ± 0.939 µmol trolox per µmol of tested,9.164 ± 0.097 µmol trolox per µmol of tested,–,148 ± 13.4 µM,–,–,–,–,12.861 ± 0.313 µmol trolox per µmol of tested,–,–,–,–,–,about 130 fold,about 1800 fold,–
"COc1ccc(C2CC(=O)c3c(O)cc(O)c(O)c3O2)cc1O (stereo not shown) [Compound 18, 8-hydroxyhesperetin]",31.187 ± 1.353 µmol trolox per µmol of tested,14.150 ± 0.229 µmol trolox per µmol of tested,–,97.1 ± 5.15 µM,–,–,135 ± 20.3 µM,–,25.260 ± 0.909 µmol trolox per µmol of tested,–,–,–,–,–,more than twice as active,144 fold,6 fold
